Measured values from ChEMBL document CHEMBL3867421, “The action mechanism of daptomycin” (Bioorg Med Chem, 2016).
Converted amounts (≈) assume the structure as drawn.

Experiments:
Bacillus subtilis [1] = experiment: Antibacterial activity against Bacillus subtilis relative to daptomycin; format: functional
Bacillus subtilis [2] = experiment: Antibacterial activity against Bacillus subtilis PY79 after 18 hrs by two-fold serial dilution method relative to daptomycin; format: functional
Bacillus spizizenii = experiment: Antibacterial activity against Bacillus subtilis ATCC 6633 incubated overnight by broth dilution method; format: functional
Enterococcus faecalis = experiment: Antibacterial activity against Enterococcus faecalis 201 by broth microdilution assay relative to daptomycin; format: functional
Enterococcus faecium = experiment: Antibacterial activity against Enterococcus faecium 14 by broth microdilution assay relative to daptomycin; format: functional
Staphylococcus aureus [3] = experiment: Antibacterial activity against Staphylococcus aureus 42 by broth microdilution assay relative to daptomycin; format: functional
[4] = Membrane permeabilization activity in DOPC/DOPG large unilamellar liposomes assessed as leakage of calcein at 16 ug/ml; format: ADME
[5] = Membrane permeabilization activity in DOPC/DOPG large unilamellar liposomes assessed as leakage of calcein at 30 ug/ml preincubated with CaCl2 for 1 hr prior to testing; format: ADME
[6] = Protein binding in human plasma by UV/HPLC analysis; format: ADME, cell-free; conditions: read-out: PPB (converted)
Staphylococcus aureus [7] = experiment: Antibacterial activity against Staphylococcus aureus JKD6004 harboring WalR K208R mutant by microbroth dilution assay; format: functional
Staphylococcus aureus [8] = experiment: Antibacterial activity against vancomycin sensitive Staphylococcus aureus JKD6004 by microbroth dilution assay; format: functional
Bacillus subtilis [9] = experiment: Antibacterial activity against Bacillus subtilis ATCC 1046 incubated overnight by broth dilution method; format: functional
Staphylococcus aureus [10] = experiment: Antibacterial activity against Staphylococcus aureus relative to daptomycin; format: functional

CCCCCCCCCC(=O)N[C@@H](Cc1c[nH]c2ccccc12)C(=O)N[C@H](CC(N)=O)C(=O)N[C@@H](CC(=O)O)C(=O)N[C@@H]1C(=O)NCC(=O)N[C@@H](CCCN)C(=O)N[C@@H](CC(=O)O)C(=O)N[C@H](C)C(=O)N[C@@H](CC(=O)O)C(=O)NCC(=O)N[C@H](CC(N)=O)C(=O)N[C@@H](CCC(=O)O)C(=O)N[C@@H](CC(=O)c2ccccc2N)C(=O)O[C@@H]1C
fold change (FC) (Bacillus subtilis [1]): 64

CCCCCCCCCC(=O)N[C@@H](Cc1c[nH]c2ccccc12)C(=O)N[C@H](CC(N)=O)C(=O)N[C@@H](CC(=O)O)C(=O)N[C@@H]1C(=O)NCC(=O)N[C@@H](CCCN)C(=O)N[C@@H](CC(=O)O)C(=O)N[C@H](CC(N)=O)C(=O)N[C@@H](CC(=O)O)C(=O)NCC(=O)N[C@H](CO)C(=O)N[C@@H](CCC(=O)O)C(=O)N[C@@H](CC(=O)c2ccccc2N)C(=O)O[C@@H]1C
fold change (FC) (Bacillus subtilis [1]): 256

CCCCCCCCCC(=O)N[C@@H](Cc1c[nH]c2ccccc12)C(=O)N[C@@H](CC(N)=O)C(=O)N[C@@H](CC(=O)O)C(=O)N[C@@H]1C(=O)NCC(=O)N[C@@H](CCCN)C(=O)N[C@@H](CC(=O)O)C(=O)N[C@H](C)C(=O)N[C@@H](CC(=O)O)C(=O)NCC(=O)N[C@H](CO)C(=O)N[C@@H](CCC(=O)O)C(=O)N[C@@H](Cc2c[nH]c3ccccc23)C(=O)O[C@@H]1C
fold change (FC) (Bacillus subtilis [2]): 33

CCCCCCCCCC(=O)N[C@@H](Cc1c[nH]c2ccccc12)C(=O)N[C@H](CC(N)=O)C(=O)N[C@@H](CC(=O)O)C(=O)N[C@@H]1C(=O)NCC(=O)N[C@@H](CCCNc2ccc([N+](=O)[O-])c3nonc23)C(=O)N[C@@H](CC(=O)O)C(=O)N[C@H](C)C(=O)N[C@@H](CC(=O)O)C(=O)NCC(=O)N[C@H](CO)C(=O)N[C@@H]([C@@H](C)CC(=O)O)C(=O)N[C@@H](CC(=O)c2ccccc2N)C(=O)O[C@@H]1C
MIC (Bacillus spizizenii): 3 µg/mL (≈ 1.68 µM)

CCCCCCCCCC(=O)N[C@@H](Cc1c[nH]c2ccccc12)C(=O)N[C@H](CC(N)=O)C(=O)N[C@@H](CC(=O)O)C(=O)N[C@@H]1C(=O)NCC(=O)N[C@@H](CCCN)C(=O)N[C@@H](CC(=O)O)C(=O)N[C@H](C)C(=O)N[C@@H](CC(=O)O)C(=O)NCC(=O)N[C@H](CO)C(=O)N[C@@H]([C@H](C)CC(=O)O)C(=O)N[C@@H](Cc2ccc(O)cc2)C(=O)O[C@@H]1C
fold change (FC) (Bacillus subtilis [2]): 47

CCCCCCCCCC(=O)N[C@@H](Cc1c[nH]c2ccccc12)C(=O)N[C@H](CC(N)=O)C(=O)N[C@@H](CC(=O)O)C(=O)N[C@@H]1C(=O)NCC(=O)N[C@@H](CCCNC(=N)CCCSCCC(=O)c2ccc3cc(N(C)C)ccc3c2)C(=O)N[C@@H](CC(=O)O)C(=O)N[C@H](C)C(=O)N[C@@H](CC(=O)O)C(=O)NCC(=O)N[C@H](CO)C(=O)N[C@@H]([C@@H](C)CC(=O)O)C(=O)N[C@@H](CC(=O)c2ccccc2N)C(=O)O[C@@H]1C
MIC (Bacillus spizizenii): 10 µg/mL (≈ 5.14 µM)

CCCCCCCCCC(=O)N[C@@H](Cc1c[nH]c2ccccc12)C(=O)N[C@@H](CC(N)=O)C(=O)N[C@@H](CC(=O)O)C(=O)N[C@@H]1C(=O)NCC(=O)N[C@@H](CCCN)C(=O)N[C@@H](CC(=O)O)C(=O)N[C@H](C)C(=O)N[C@@H](CC(=O)O)C(=O)NCC(=O)N[C@H](CO)C(=O)N[C@@H](CCC(N)=O)C(=O)N[C@@H](CC(=O)c2ccccc2N)C(=O)O[C@@H]1C
fold change (FC) (Bacillus subtilis [2]): 10

CCCCCCCCCC(=O)N[C@@H](Cc1c[nH]c2ccccc12)C(=O)N[C@@H](CC(N)=O)C(=O)N[C@@H](CC(=O)O)C(=O)N[C@@H]1C(=O)NCC(=O)N[C@@H](CCCCN)C(=O)N[C@@H](CC(=O)O)C(=O)N[C@H](C)C(=O)N[C@@H](CC(=O)O)C(=O)NCC(=O)N[C@H](CO)C(=O)N[C@@H](CCC(=O)O)C(=O)N[C@@H](Cc2c[nH]c3ccccc23)C(=O)O[C@@H]1C
fold change (FC) (Bacillus subtilis [2]): 33

CCCCCCCCCC(=O)N[C@@H](Cc1c[nH]c2ccccc12)C(=O)N[C@@H](CC(N)=O)C(=O)N[C@@H](CC(N)=O)C(=O)N[C@@H]1C(=O)NCC(=O)N[C@@H](CCCN)C(=O)N[C@@H](CC(=O)O)C(=O)N[C@H](C)C(=O)N[C@@H](CC(=O)O)C(=O)NCC(=O)N[C@H](CO)C(=O)N[C@@H](CCC(=O)O)C(=O)N[C@@H](CC(=O)c2ccccc2N)C(=O)O[C@@H]1C
fold change (FC) (Bacillus subtilis [2]): 27

CCCCCCCCCC(=O)N[C@@H](Cc1c[nH]c2ccccc12)C(=O)NC(CC(N)=O)C(=O)N[C@@H](CC(=O)O)C(=O)N[C@@H]1C(=O)NCC(=O)N[C@@H](CCCN)C(=O)N[C@@H](CC(=O)O)C(=O)N[C@H](C)C(=O)N[C@@H](CC(=O)O)C(=O)NCC(=O)N[C@H](CO)C(=O)N[C@@H]([C@H](C)CC(=O)O)C(=O)N[C@@H](CC(=O)c2ccccc2N)C(=O)O[C@@H]1C (single isomer, unassigned)
fold change (FC) (Enterococcus faecalis): 10 | fold change (FC) (Enterococcus faecium): 10 | fold change (FC) (Staphylococcus aureus [3]): 10

CCCCCCCCCC(=O)N[C@@H](Cc1c[nH]c2ccccc12)C(=O)N[C@H](CC(N)=O)C(=O)N[C@@H](CC(=O)O)C(=O)N[C@@H]1C(=O)NCC(=O)N[C@@H](CCCN)C(=O)N[C@@H](CC(=O)O)C(=O)N[C@H](C)C(=O)N[C@@H](CC(=O)O)C(=O)NCC(=O)N[C@H](CO)C(=O)N[C@@H]([C@H](C)CC(=O)O)C(=O)N[C@@H](CC(=O)c2ccccc2N)C(=O)O[C@@H]1C [DAPTOMYCIN]
Activity [4]: < 10% | Activity [5]: 100% | fraction unbound [6]: 0.1

CCCCCCCCCC(=O)N[C@@H](Cc1c[nH]c2ccccc12)C(=O)N[C@@H](CC(N)=O)C(=O)N[C@@H](CC(=O)O)C(=O)N[C@@H]1C(=O)NCC(=O)N[C@@H](CCCN)C(=O)N[C@@H](CC(=O)O)C(=O)N[C@H](C)C(=O)N[C@@H](CC(=O)O)C(=O)NCC(=O)N[C@H](CO)C(=O)N[C@@H]([C@H](C)CC(=O)O)C(=O)N[C@@H](CC(=O)c2ccccc2N)C(=O)O[C@@H]1C [DAPTOMYCIN]
MIC (Staphylococcus aureus [7]): 2 µg/mL (≈ 1.23 µM) | MIC (Staphylococcus aureus [8]): 0.5 µg/mL (≈ 0.309 µM)

CCCCCCCCCC(=O)N[C@@H](Cc1c[nH]c2ccccc12)C(=O)N[C@@H](CC(N)=O)C(=O)N[C@@H](CC(=O)O)C(=O)N[C@@H]1C(=O)NCC(=O)N[C@@H](CCCN)C(=O)N[C@@H](CC(=O)O)C(=O)N[C@H](C)C(=O)N[C@@H](CC(=O)O)C(=O)NCC(=O)N[C@H](CC(=O)O)C(=O)N[C@@H](CCC(=O)O)C(=O)N[C@@H](CC(=O)c2ccccc2N)C(=O)O[C@@H]1C
fold change (FC) (Bacillus subtilis [2]): >100

CCCCCCCCCC(=O)N[C@@H](Cc1c[nH]c2ccccc12)C(=O)N[C@H](CC(N)=O)C(=O)N[C@@H](CC(=O)O)C(=O)N[C@@H]1C(=O)NCC(=O)N[C@@H](CCCN)C(=O)N[C@@H](CC(=O)O)C(=O)N[C@H](CC(N)=O)C(=O)N[C@@H](CC(=O)O)C(=O)NCC(=O)N[C@H](CO)C(=O)N[C@@H]([C@H](C)CC(=O)O)C(=O)N[C@@H](CC(=O)c2ccccc2N)C(=O)O[C@@H]1C
fold change (FC) (Bacillus subtilis [1]): 16

CCCCCCCCCC(=O)N[C@@H](Cc1c[nH]c2ccccc12)C(=O)N[C@H](CC(N)=O)C(=O)N[C@@H](CC(=O)O)C(=O)N[C@@H]1C(=O)NCC(=O)N[C@@H](CCCN)C(=O)N[C@@H](CC(=O)O)C(=O)N[C@H](C)C(=O)N[C@@H](CC(=O)O)C(=O)NCC(=O)N[C@H](CC(N)=O)C(=O)N[C@@H]([C@H](C)CC(=O)O)C(=O)N[C@@H]([C@@H](C)CC)C(=O)O[C@@H]1C
fold change (FC) (Bacillus subtilis [1]): 8

CCCCCCCCCC(=O)N[C@@H](Cc1c[nH]c2ccccc12)C(=O)N[C@H](CC(N)=O)C(=O)N[C@@H](CC(=O)O)C(=O)N[C@@H]1C(=O)NCC(=O)N[C@@H](CCCN)C(=O)N[C@@H](CC(=O)O)C(=O)N[C@H](CC(N)=O)C(=O)N[C@@H](CC(=O)O)C(=O)NCC(=O)N[C@H](CO)C(=O)N[C@@H]([C@H](C)CC(=O)O)C(=O)N[C@@H]([C@@H](C)CC)C(=O)O[C@@H]1C
fold change (FC) (Bacillus subtilis [1]): 32

C[C@H]1NC(=O)[C@H](CC(=O)O)NC(=O)[C@H](CCCN)NC(=O)CNC(=O)[C@@H](NC(=O)[C@H](CC(=O)O)NC(=O)[C@@H](CC(N)=O)NC(=O)[C@H](Cc2c[nH]c3ccccc23)NC(=O)CCCc2cc3cccc4c5cccc6cccc(c(c2)c34)c65)[C@@H](C)OC(=O)[C@H](CC(=O)c2ccccc2N)NC(=O)[C@H]([C@@H](C)CC(=O)O)NC(=O)[C@@H](CO)NC(=O)CNC(=O)[C@H](CC(=O)O)NC1=O
MIC (Bacillus subtilis [9]): 3 µg/mL (≈ 1.68 µM)

CCCCCCCCCC(=O)N[C@@H](Cc1c[nH]c2ccccc12)C(=O)N[C@H](CC(N)=O)C(=O)N[C@@H](CC(=O)O)C(=O)N[C@H]1CNC(=O)[C@H](CC(=O)c2ccccc2N)NC(=O)[C@H](CCC(=O)O)NC(=O)[C@@H](CO)NC(=O)CNC(=O)[C@H](CC(=O)O)NC(=O)[C@@H](C)NC(=O)[C@H](CC(=O)O)NC(=O)[C@H](CCCN)NC(=O)CNC1=O
fold change (FC) (Staphylococcus aureus [10]): 200

CCCCCCCCCC(=O)N[C@@H](Cc1c[nH]c2ccccc12)C(=O)N[C@H](CC(N)=O)C(=O)N[C@@H](CC(=O)O)C(=O)N[C@H]1CNC(=O)[C@H](Cc2c[nH]c3ccccc23)NC(=O)[C@H](CCC(=O)O)NC(=O)[C@@H](CO)NC(=O)CNC(=O)[C@H](CC(=O)O)NC(=O)[C@@H](C)NC(=O)[C@H](CC(=O)O)NC(=O)[C@H](CCCN)NC(=O)CNC1=O
fold change (FC) (Staphylococcus aureus [10]): 100

CCCCCCCCCC(=O)N[C@@H](Cc1c[nH]c2ccccc12)C(=O)N[C@H](CC(N)=O)C(=O)N[C@@H](CC(=O)O)C(=O)N[C@@H]1C(=O)NCC(=O)N[C@@H](CCCNC(=O)Cc2c(C)c3cc(S(=O)(=O)O)c(N)cc3oc2=O)C(=O)N[C@@H](CC(=O)O)C(=O)N[C@H](C)C(=O)N[C@@H](CC(=O)O)C(=O)NCC(=O)N[C@H](CO)C(=O)N[C@@H]([C@@H](C)CC(=O)O)C(=O)N[C@@H](CC(=O)c2ccccc2N)C(=O)O[C@@H]1C
MIC (Bacillus spizizenii): 12 µg/mL (≈ 6.26 µM)
